Read-outs that look alike come from different tables or passages of the source.
Target: T1, human Cav3.2 T-type Ca2+ channel (Homo sapiens, UniProt O95180)
T1 construct: expressed in transfected cells; host or cells: KJMGER8 cells (Namalwa cell-derived cell line)
Assay: Inhibitory effect for intracellular calcium response via Cav3.2 T-type Ca2+ channels (FLIPR Calcium 3 Assay Kit)
Assay type: cell-based

[1] = human Cav3.2-expressing KJMGER8 cells (Namalwa-derived), calcium response induced by 5 mmol/L CaCl2, 3 μmol/L mibefradil as reference, read-out: IC50 for the human Cav3.2 T-type Ca2+ current

T1 sequence (O95180 whole entry): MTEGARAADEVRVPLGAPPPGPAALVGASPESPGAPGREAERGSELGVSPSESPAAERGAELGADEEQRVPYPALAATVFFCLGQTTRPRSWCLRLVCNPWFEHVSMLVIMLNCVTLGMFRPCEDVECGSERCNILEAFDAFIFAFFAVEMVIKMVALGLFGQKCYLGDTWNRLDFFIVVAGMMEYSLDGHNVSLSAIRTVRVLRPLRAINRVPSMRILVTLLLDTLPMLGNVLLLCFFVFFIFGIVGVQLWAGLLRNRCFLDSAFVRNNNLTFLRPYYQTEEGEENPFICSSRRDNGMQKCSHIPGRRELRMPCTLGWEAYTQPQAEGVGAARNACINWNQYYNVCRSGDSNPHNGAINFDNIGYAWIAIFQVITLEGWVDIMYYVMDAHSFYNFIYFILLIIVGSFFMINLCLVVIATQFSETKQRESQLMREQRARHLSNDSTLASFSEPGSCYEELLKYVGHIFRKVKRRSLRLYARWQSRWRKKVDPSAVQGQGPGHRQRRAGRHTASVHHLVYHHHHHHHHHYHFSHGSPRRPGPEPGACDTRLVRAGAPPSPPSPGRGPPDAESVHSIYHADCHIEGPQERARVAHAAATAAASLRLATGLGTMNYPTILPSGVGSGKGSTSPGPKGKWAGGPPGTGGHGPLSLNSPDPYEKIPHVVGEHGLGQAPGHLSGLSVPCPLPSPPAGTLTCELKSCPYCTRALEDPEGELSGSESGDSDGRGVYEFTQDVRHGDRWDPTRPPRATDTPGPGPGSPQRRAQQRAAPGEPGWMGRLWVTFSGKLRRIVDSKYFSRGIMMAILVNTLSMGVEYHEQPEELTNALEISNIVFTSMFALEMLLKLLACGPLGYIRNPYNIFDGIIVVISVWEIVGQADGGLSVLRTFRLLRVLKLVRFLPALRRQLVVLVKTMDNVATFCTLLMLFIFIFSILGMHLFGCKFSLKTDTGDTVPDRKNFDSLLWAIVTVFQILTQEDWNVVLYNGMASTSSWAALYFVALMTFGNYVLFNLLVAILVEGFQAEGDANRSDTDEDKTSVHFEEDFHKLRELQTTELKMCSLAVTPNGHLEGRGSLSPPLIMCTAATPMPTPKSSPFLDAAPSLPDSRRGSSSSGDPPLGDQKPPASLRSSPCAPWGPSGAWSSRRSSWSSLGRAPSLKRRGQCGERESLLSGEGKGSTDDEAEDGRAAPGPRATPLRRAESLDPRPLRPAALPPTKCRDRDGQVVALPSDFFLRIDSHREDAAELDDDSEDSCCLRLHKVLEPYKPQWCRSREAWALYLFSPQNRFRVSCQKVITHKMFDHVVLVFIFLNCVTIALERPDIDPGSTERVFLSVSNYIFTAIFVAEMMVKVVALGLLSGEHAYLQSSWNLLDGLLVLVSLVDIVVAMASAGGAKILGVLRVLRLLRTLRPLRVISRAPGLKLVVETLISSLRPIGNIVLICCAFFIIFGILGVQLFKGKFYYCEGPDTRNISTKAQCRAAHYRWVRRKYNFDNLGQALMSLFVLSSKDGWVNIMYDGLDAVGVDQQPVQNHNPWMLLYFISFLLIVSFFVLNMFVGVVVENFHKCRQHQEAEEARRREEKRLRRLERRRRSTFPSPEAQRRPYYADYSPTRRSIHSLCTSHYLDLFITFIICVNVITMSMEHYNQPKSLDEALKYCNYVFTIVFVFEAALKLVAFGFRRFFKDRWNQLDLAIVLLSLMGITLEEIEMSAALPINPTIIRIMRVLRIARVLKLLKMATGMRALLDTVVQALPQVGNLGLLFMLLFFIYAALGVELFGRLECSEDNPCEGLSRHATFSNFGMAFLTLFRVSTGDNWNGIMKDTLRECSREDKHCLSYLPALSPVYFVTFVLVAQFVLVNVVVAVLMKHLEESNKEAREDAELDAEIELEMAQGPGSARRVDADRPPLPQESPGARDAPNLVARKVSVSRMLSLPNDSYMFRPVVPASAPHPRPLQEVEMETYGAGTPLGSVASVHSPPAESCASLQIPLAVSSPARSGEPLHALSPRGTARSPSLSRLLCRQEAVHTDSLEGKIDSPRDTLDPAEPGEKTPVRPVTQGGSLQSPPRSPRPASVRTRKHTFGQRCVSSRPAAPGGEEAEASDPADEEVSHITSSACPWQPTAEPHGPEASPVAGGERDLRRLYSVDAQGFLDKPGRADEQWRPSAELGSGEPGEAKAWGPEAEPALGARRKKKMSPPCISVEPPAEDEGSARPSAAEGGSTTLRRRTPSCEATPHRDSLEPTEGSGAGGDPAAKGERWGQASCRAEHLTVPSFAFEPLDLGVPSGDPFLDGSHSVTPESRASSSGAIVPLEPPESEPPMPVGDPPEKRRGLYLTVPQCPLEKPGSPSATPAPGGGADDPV

| SMILES | IC50 | IC50 [1] |
| --- | --- | --- |
| CC(NC(=O)c1cc(Cl)n2c(CC3CCC(F)(F)CC3)c(C(F)(F)F)nc2c1)C(=O)NC1CCOCC1 (centres unmarked) [Compound 128, 5-Chloro-3-[(4,4-difluorocyclohexyl)methyl]-N-[1-oxo-1-(tetrahydro-2H-pyran-4-ylamino)propan-2-yl]-2-(trifluoromethyl)imidazo[1,2-a]pyridine-7-carboxamide] | ≤ 100 nM | – |
| Cc1cc(C(=O)NC2(C3CCOCC3)CC2)cc2nc(C(F)(F)F)c(CC3CCC(F)(F)CC3)n12 [Compound 75, 3-[(4,4-Difluorocyclohexyl)methyl]-5-methyl-N-[1-(tetrahydro-2H-pyran-4-yl)cyclopropyl]-2-(trifluoromethyl)imidazo[1,2-a]pyridine-7-carboxamide] | – | ≤ 100 nM |
| Cc1cc(C(=O)NC2CCOCC2)cc2nc(C(C)(F)F)c(Cc3ccc(Cl)cc3)n12 [Compound 214, 3-(4-Chlorobenzyl)-2-(1,1-difluoroethyl)-5-methyl-N-(tetrahydro-2H-pyran-4-yl)imidazo[1,2-a]pyridine-7-carboxamide] | ≤ 100 nM | – |
| N#Cc1cc(C(=O)NC2CCCOC2)cc2nc(C(F)(F)F)c(CC3CCC(F)(F)CC3)n12 (centres unmarked) [Compound 64] | – | ≤ 100 nM |
| Cc1cc(C(=O)NC2CC3(COC3)C2)cc2nc(C(C)(C)C)c(CC3CCC(F)(F)CC3)n12 [Compound 137, 2-tert-Butyl-3-[(4,4-difluorocyclohexyl)methyl]-5-methyl-N-(2-oxaspiro[3.3]heptan-6-yl)imidazo[1,2-a]pyridine-7-carboxamide] | ≤ 100 nM | – |
| CCOC(=O)C1(NC(=O)c2cc(Cl)n3c(CC4CCC(F)(F)CC4)c(C(F)(F)F)nc3c2)CC1 [Compound 135, Ethyl 1-{5-chloro-3-[(4,4-difluorocyclohexyl)methyl]-2-(trifluoromethyl)imidazo[1,2-a]pyridine-7-carboxamide}cyclopropanecarboxylate] | ≤ 100 nM | – |
| O=C(CNC(=O)c1cc(Cl)n2c(CC3CCC(F)(F)CC3)c(C(F)(F)F)nc2c1)Nc1ccccc1 [Compound 151, 5-Chloro-3-[(4,4-difluorocyclohexyl)methyl]-N-[2-oxo-2-(phenylamino)ethyl]-2-(trifluoromethyl)imidazo[1,2-a]pyridine-7-carboxamide] | ≤ 100 nM | – |
| CC(C)(CO)CNC(=O)c1cc(C#N)n2c(CC3CCC(F)(F)CC3)c(C(F)(F)F)nc2c1 [Compound 155, 5-Cyano-3-[(4,4-difluorocyclohexyl)methyl]-N-(3-hydroxy-2,2-dimethylpropyl)-2-(trifluoromethyl)imidazo[1,2-a]pyridine-7-carboxamide] | ≤ 100 nM | – |
| CC(C)(C)NC(=O)c1cc(C#N)n2c(CC3CCC(F)(F)CC3)c(C(F)(F)F)nc2c1 [Compound 198, N-tert-Butyl-5-cyano-3-[(4,4-difluorocyclohexyl)methyl]-2-(trifluoromethyl)imidazo[1,2-a]pyridine-7-carboxamide] | – | ≤ 100 nM |
| CCOC(=O)C(C)NC(=O)c1cc(Cl)n2c(CC3CCC(F)(F)CC3)c(C(F)(F)F)nc2c1 (centres unmarked) [Compound 123, Ethyl 2-{5-chloro-3-[(4,4-difluorocyclohexyl)methyl]-2-(trifluoromethyl)imidazo[1,2-a]pyridine-7-carboxamide}propanoate] | ≤ 100 nM | – |
| CC1(C)CC(NC(=O)c2cc3nc(C(C)(F)F)c(CC4CCC(F)(F)CC4)n3cc2Cl)CCO1 (centres unmarked) [Compound 23, 6-Chloro-3-[(4,4-difluorocyclohexyl)methyl]-2-(1,1-difluoroethyl)-N-(2,2-dimethyltetrahydro-2H-pyran-4-yl)imidazo[1,2-a]pyridine-7-carboxamide] | ≤ 100 nM | – |
| Cc1cc(C(=O)NC2CC3(COC3)C2)cc2nc(C(C)C)c(CC3CCC(F)(F)CC3)n12 [Compound 145, 3-[(4,4-Difluorocyclohexyl)methyl]-2-isopropyl-5-methyl-N-(2-oxaspiro[3.3]heptan-6-yl)imidazo[1,2-a]pyridine-7-carboxamide] | ≤ 100 nM | – |
| Cc1cc(C(=O)NC2CCOCC2)cc2nc(C(C)C)c(Cc3ccc(Cl)cc3)n12 [Compound 224, 3-(4-Chlorobenzyl)-2-isopropyl-5-methyl-N-(tetrahydro-2H-pyran-4-yl)imidazo[1,2-a]pyridine-7-carboxamide] | ≤ 100 nM | – |
| O=C(NCc1ccccn1)c1cc(Cl)n2c(CC3CCC(F)(F)CC3)c(C(F)(F)F)nc2c1 [Compound 106] | ≤ 100 nM | – |
| Cc1c(C(=O)NC2CCOCC2)cc2nc(C(F)(F)F)c(CC3CCC(F)(F)CC3)n2c1C [Compound 167, 3-[(4,4-Difluorocyclohexyl)methyl]-5,6-dimethyl-N-(tetrahydro-2H-pyran-4-yl)-2-(trifluoromethyl)imidazo[1,2-a]pyridine-7-carboxamide] | ≤ 100 nM | – |
| CC(F)(F)c1nc2cc(C(=O)NC3CCOCC3)cc(C#N)n2c1CC1CCC(F)(F)CC1 [Compound 159, 5-Cyano-3-[(4,4-difluorocyclohexyl)methyl]-2-(1,1-difluoroethyl)-N-(tetrahydro-2H-pyran-4-yl)imidazo[1,2-a]pyridine-7-carboxamide] | ≤ 100 nM | – |

| SMILES | IC50 | IC50 [1] |
| --- | --- | --- |
| O=C(NC1CCC(F)(F)CC1)c1cc2nc(C3CC3)c(CC3CCC(F)(F)CC3)n2cc1Cl [Compound 14, 6-Chloro-2-cyclopropyl-N-(4,4-difluorocyclohexyl)-3-[(4,4-difluorocyclohexyl)methyl]imidazo[1,2-a]pyridine-7-carboxamide] | ≤ 100 nM | – |
| O=C(CNC(=O)c1cc(Cl)n2c(CC3CCC(F)(F)CC3)c(C(F)(F)F)nc2c1)NC1CCOC1 (centres unmarked) [Compound 131, 5-Chloro-3-[(4,4-difluorocyclohexyl)methyl]-N-[2-oxo-2-(tetrahydrofuran-3-ylamino)ethyl]-2-(trifluoromethyl)imidazo[1,2-a]pyridine-7-carboxamide] | ≤ 100 nM | – |
| CC(C)(C)NC(=O)c1cc(C#N)n2c(CC3CCC(F)(F)CC3)c(C(C)(F)F)nc2c1 [Compound 225, N-tert-Butyl-5-cyano-3-[(4,4-difluorocyclohexyl)methyl]-2-(1,1-difluoroethyl)imidazo[1,2-a]pyridine-7-carboxamide] | ≤ 100 nM | – |
| O=C(NCCN(CCO)CCO)c1cc(Cl)n2c(CC3CCC(F)(F)CC3)c(C(F)(F)F)nc2c1 [Compound 109, N-{2-[Bis(2-hydroxyethyl)amino]ethyl}-5-chloro-3-[(4,4-difluorocyclohexyl)methyl]-2-(trifluoromethyl)imidazo[1,2-a]pyridine-7-carboxamide] | – | ≤ 100 nM |
| Cc1cc(-c2nc3c([nH]2)CCCC3)cc2nc(C(F)(F)F)c(CC3CCC(F)(F)CC3)n12 [Compound 73, 2-{3-[(4,4-Difluorocyclohexyl)methyl]-5-methyl-2-(trifluoromethyl)imidazo[1,2-a]pyridin-7-yl}-4,5,6,7-tetrahydro-1H-benzo[d]imidazol] | ≤ 100 nM | – |
| CCOC(=O)CNC(=O)c1cc(Cl)n2c(CC3CCC(F)(F)CC3)c(C(F)(F)F)nc2c1 [Compound 110, Ethyl 2-{5-chloro-3-[(4,4-difluorocyclohexyl)methyl]-2-(trifluoromethyl)imidazo[1,2-a]pyridine-7-carboxamide}acetate] | ≤ 100 nM | – |
| O=C(NC1CC(CO)(CO)C1)c1cc(Cl)n2c(CC3CCC(F)(F)CC3)c(C(F)(F)F)nc2c1 [Compound 95, N-[3,3-Bis(hydroxymethyl)cyclobutyl]-5-chloro-3-[(4,4-difluorocyclohexyl)methyl]-2-(trifluoromethyl)imidazo[1,2-a]pyridine-7-carboxamide] | ≤ 100 nM | – |
| O=C(NC1CCOCC1)c1cc(Br)n2c(CC3CCC(F)(F)CC3)c(C(F)(F)F)nc2c1 [Compound 39] | ≤ 100 nM | – |
| Cc1cc(CC(=O)NC2CCOCC2)cc2nc(C(F)(F)F)c(CC3CCC(F)(F)CC3)n12 [Compound 78, 2-{3-[(4,4-Difluorocyclohexyl)methyl]-5-methyl-2-(trifluoromethyl)imidazo[1,2-a]pyridin-7-yl}-N-(tetrahydro-2H-pyran-4-yl)acetamide] | ≤ 100 nM | – |
| Cc1cc(C(=O)NC2CC3(COC3)C2)cc2nc(C(C)(F)F)c(CC3CCC(F)(F)CC3)n12 [Compound 136, 3-[(4,4-Difluorocyclohexyl)methyl]-2-(1,1-difluoroethyl)-5-methyl-N-(2-oxaspiro[3.3]heptan-6-yl)imidazo[1,2-a]pyridine-7-carboxamide] | ≤ 100 nM | – |
| CC(F)(F)c1nc2cc(C(=O)NCC3CC3)c(Cl)cn2c1CC1CCC(F)(F)CC1 [Compound 21, 6-Chloro-N-(cyclopropylmethyl)-3-[(4,4-difluorocyclohexyl)methyl]-2-(1,1-difluoroethyl)imidazo[1,2-a]pyridine-7-carboxamide] | ≤ 100 nM | – |
| CC(F)(F)c1nc2cc(C(=O)NC3CCC3)c(Cl)cn2c1CC1CCC(F)(F)CC1 [Compound 22, 6-Chloro-N-cyclobutyl-3-[(4,4-difluorocyclohexyl)methyl]-2-(1,1-difluoroethyl)imidazo[1,2-a]pyridine-7-carboxamide] | ≤ 100 nM | – |
| COc1c(C(=O)NC2CCOCC2)cc(C)n2c(CC3CCC(F)(F)CC3)c(C(F)(F)F)nc12 [Compound 133, 3-[(4,4-Difluorocyclohexyl)methyl]-8-methoxy-5-methyl-N-(tetrahydro-2H-pyran-4-yl)-2-(trifluoromethyl)imidazo[1,2-a]pyridine-7-carboxamide] | ≤ 100 nM | – |
| C#Cc1cc(C(=O)NC2CCOCC2)cc2nc(C(F)(F)F)c(CC3CCC(F)(F)CC3)n12 [Compound 50, 3-[(4,4-Difluorocyclohexyl)methyl]-5-ethynyl-N-(tetrahydro-2H-pyran-4-yl)-2-(trifluoromethyl)imidazo[1,2-a]pyridine-7-carboxamide] | – | ≤ 100 nM |
| O=C(NCC1(O)CC1)c1cc(Cl)n2c(CC3CCC(F)(F)CC3)c(C(F)(F)F)nc2c1 [Compound 125, 5-Chloro-3-[(4,4-difluorocyclohexyl)methyl]-N-[(1-hydroxycyclopropyl)methyl]-2-(trifluoromethyl)imidazo[1,2-a]pyridine-7-carboxamide] | ≤ 100 nM | – |
| CC(C)(C)OC(=O)NCCNC(=O)c1cc(Cl)n2c(CC3CCC(F)(F)CC3)c(C(F)(F)F)nc2c1 [Compound 115, tert-Butyl 2-{5-chloro-3-[(4,4-difluorocyclohexyl)methyl]-2-(trifluoromethyl)imidazo[1,2-a]pyridine-7-carboxamide}ethylcarbamate] | ≤ 100 nM | – |

Source: US9540366B2, “Ring-fused heterocyclic compound” (Kyowa Hakko Kirin Co., Ltd., priority 2012, dated 2017)
